According to ChEMBL document CHEMBL2074363, “Human organic anion transporters mediate the transport of tetracycline” (Jpn J Pharmacol, 2002):
Blank lines part the entries; values can stand above or below the molecule they belong to.

Assays:
Assay type in all cases: functional, cell-based
[1] = biological target: T1, Solute carrier family 22 member 7 (Homo sapiens, UniProt Q9Y694); assay: TP_TRANSPORTER: inhibition of PGF2alpha uptake (PGF2alpha: 0.005 uM, Tetracycline: 5 uM) in OAT2-expressing S2 cells; details: mouse, s2, 5 µM
T1 sequence (Q9Y694 whole entry): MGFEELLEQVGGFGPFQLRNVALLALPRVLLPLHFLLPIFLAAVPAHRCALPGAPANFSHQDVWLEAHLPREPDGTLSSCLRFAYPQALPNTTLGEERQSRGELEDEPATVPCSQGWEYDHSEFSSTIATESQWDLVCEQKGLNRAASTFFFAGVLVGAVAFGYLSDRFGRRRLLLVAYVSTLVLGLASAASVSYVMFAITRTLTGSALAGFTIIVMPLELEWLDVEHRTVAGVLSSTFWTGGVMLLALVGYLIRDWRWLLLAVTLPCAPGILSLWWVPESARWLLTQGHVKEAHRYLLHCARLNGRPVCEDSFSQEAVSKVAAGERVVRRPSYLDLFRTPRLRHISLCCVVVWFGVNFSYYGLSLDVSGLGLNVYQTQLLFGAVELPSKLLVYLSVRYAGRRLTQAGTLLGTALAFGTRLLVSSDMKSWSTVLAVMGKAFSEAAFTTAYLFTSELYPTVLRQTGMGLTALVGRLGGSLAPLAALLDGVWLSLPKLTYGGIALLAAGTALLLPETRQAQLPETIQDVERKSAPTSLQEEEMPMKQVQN

[2] = biological target: T2, Solute carrier family 22 member 11 (Homo sapiens, UniProt Q9NSA0); assay: TP_TRANSPORTER: inhibition of E1S uptake (E1S: 0.05 uM, Tetracycline: 50 uM) in OAT4-expressing S2 cells; details: mouse, s2, 50 µM
T2 sequence (Q9NSA0 whole entry): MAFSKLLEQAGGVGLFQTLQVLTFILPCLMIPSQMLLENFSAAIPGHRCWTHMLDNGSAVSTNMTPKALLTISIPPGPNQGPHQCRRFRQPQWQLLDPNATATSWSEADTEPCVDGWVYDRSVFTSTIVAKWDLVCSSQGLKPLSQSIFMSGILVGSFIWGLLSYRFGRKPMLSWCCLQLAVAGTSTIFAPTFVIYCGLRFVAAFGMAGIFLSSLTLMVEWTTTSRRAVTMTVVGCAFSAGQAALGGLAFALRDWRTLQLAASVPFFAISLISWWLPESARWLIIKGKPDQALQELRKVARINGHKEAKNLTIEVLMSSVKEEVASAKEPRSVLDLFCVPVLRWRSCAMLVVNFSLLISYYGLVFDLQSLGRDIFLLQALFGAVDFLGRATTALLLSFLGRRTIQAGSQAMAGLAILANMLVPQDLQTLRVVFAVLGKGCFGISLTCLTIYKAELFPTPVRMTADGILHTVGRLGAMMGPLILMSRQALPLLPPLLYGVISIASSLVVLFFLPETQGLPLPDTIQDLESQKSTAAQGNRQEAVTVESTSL

[3] = biological target: T3, Organic anion transporter 3 (Homo sapiens, UniProt Q8TCC7); assay: TP_TRANSPORTER: inhibition of E1S uptake (E1S: 0.05 uM, Tetracycline: 50 uM) in OAT3-expressing S2 cells; details: mouse, s2, 50 µM
T3 sequence (Q8TCC7 whole entry): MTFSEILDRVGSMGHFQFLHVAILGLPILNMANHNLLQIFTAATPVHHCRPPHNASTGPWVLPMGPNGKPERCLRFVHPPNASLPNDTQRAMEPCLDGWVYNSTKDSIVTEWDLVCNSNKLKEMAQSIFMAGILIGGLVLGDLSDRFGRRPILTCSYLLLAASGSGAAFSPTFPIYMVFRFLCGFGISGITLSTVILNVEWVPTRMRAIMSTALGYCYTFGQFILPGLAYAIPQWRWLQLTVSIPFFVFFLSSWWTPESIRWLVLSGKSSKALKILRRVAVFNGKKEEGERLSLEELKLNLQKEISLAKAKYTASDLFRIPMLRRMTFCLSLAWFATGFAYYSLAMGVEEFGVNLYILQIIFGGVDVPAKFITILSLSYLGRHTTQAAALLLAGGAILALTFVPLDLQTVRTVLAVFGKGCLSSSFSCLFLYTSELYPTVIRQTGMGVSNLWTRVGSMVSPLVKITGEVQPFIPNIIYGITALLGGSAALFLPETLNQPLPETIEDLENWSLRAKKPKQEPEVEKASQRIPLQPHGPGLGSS

[4] = biological target: T4, Solute carrier family 22 member 6 (Homo sapiens, UniProt Q4U2R8); assay: TP_TRANSPORTER: inhibition of PAH uptake (PAH: 5 uM, Tetracycline: 1000 uM) in OAT1-expressing S2 cells; details: s2, 1000 µM
T4 sequence (Q4U2R8 whole entry): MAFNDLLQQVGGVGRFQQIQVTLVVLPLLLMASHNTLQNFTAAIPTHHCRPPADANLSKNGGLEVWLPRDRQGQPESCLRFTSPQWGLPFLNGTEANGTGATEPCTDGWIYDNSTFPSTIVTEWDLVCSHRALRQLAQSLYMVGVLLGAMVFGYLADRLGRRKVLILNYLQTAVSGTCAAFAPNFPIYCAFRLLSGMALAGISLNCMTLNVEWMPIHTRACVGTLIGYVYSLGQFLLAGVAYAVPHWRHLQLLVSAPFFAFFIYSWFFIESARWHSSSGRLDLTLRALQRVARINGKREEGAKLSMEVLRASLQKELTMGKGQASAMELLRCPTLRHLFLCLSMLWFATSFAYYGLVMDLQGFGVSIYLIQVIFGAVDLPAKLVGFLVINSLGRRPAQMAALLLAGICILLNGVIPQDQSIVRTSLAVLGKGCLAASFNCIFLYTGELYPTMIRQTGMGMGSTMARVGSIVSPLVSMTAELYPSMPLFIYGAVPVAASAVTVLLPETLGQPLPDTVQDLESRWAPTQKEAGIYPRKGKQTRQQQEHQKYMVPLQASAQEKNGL

[5] = biological target: T1, Solute carrier family 22 member 7; assay: TP_TRANSPORTER: inhibition of PGF2alpha uptake (PGF2alpha: 0.005 uM, Oxytetracycline: 5 uM) in OAT2-expressing S2 cells; details: s2, 5 µM
[6] = biological target: T2, Solute carrier family 22 member 11; assay: TP_TRANSPORTER: inhibition of E1S uptake (E1S: 0.05 uM, Oxytetracycline: 50 uM) in OAT4-expressing S2 cells; details: mouse, s2, 50 µM
[7] = biological target: T3, Organic anion transporter 3; assay: TP_TRANSPORTER: inhibition of E1S uptake (E1S: 0.05 uM, Oxytetracycline: 50 uM) in OAT3-expressing S2 cells; details: s2, 50 µM
[8] = biological target: T4, Solute carrier family 22 member 6; assay: TP_TRANSPORTER: inhibition of PAH uptake (PAH: 5 uM, Oxytetracycline: 500 uM) in OAT1-expressing S2 cells; details: mouse, s2, 500 µM
[9] = biological target: T2, Solute carrier family 22 member 11; assay: TP_TRANSPORTER: inhibition of E1S uptake (E1S: 0.05 uM, Doxycycline: 50 uM) in OAT4-expressing S2 cells; details: mouse, s2, 50 µM
[10] = biological target: T3, Organic anion transporter 3; assay: TP_TRANSPORTER: inhibition of E1S uptake (E1S: 0.05 uM, Doxycycline: 50 uM) in OAT3-expressing S2 cells; details: s2, 50 µM
[11] = biological target: T4, Solute carrier family 22 member 6; assay: TP_TRANSPORTER: inhibition of PAH uptake (PAH: 5 uM, Doxycycline: 500 uM) in OAT1-expressing S2 cells; details: s2, 500 µM
[12] = biological target: T1, Solute carrier family 22 member 7; assay: TP_TRANSPORTER: inhibition of PGF2alpha uptake (PGF2alpha: 0.005 uM, Minocycline: 5 uM) in OAT2-expressing S2 cells; details: s2, 5 µM
[13] = biological target: T2, Solute carrier family 22 member 11; assay: TP_TRANSPORTER: inhibition of E1S uptake (E1S: 0.05 uM, Minocycline: 50 uM) in OAT4-expressing S2 cells; details: mouse, s2, 50 µM
[14] = biological target: T3, Organic anion transporter 3; assay: TP_TRANSPORTER: inhibition of E1S uptake (E1S: 0.05 uM, Minocycline: 50 uM) in OAT3-expressing S2 cells; details: s2, 50 µM
[15] = biological target: T4, Solute carrier family 22 member 6; assay: TP_TRANSPORTER: inhibition of PAH uptake (PAH: 5 uM, Minocycline: 500 uM) in OAT1-expressing S2 cells; details: s2, 500 µM
[16] = substrate: CN(C)[C@@H]1C(O)=C(C(N)=O)C(=O)[C@@]2(O)C(O)=C3C(=O)c4c(O)cccc4[C@@](C)(O)[C@H]3C[C@@H]12; assay: TP_TRANSPORTER: uptake in OAT3-expressing S2 cells
[17] = substrate: CN(C)[C@@H]1C(O)=C(C(N)=O)C(=O)[C@@]2(O)C(O)=C3C(=O)c4c(O)cccc4[C@@](C)(O)[C@H]3C[C@@H]12; assay: TP_TRANSPORTER: uptake in OAT2-expressing S2 cells
[18] = substrate: CN(C)[C@@H]1C(O)=C(C(N)=O)C(=O)[C@@]2(O)C(O)=C3C(=O)c4c(O)cccc4[C@@](C)(O)[C@H]3C[C@@H]12; assay: TP_TRANSPORTER: uptake in OAT4-expressing S2 cells

Activity [3]: is not an inhibitor [-]
Molecule: CN(C)[C@@H]1C(O)=C(C(N)=O)C(=O)[C@@]2(O)C(O)=C3C(=O)c4c(O)cccc4[C@@](C)(O)[C@H]3C[C@@H]12 [TETRACYCLINE]
Activity [1]: inhibitor [(at a rough estimate) 85 % of control]
Activity [2]: inhibitor [(at a rough estimate) 75 % of control]
Activity [4]: inhibitor [(at a rough estimate) 45 % of control]

Activity [6]: is not an inhibitor [-]
Activity [7]: is not an inhibitor [-]
Molecule: CN(C)[C@@H]1C(O)=C(C(N)=O)C(=O)[C@@]2(O)C(O)=C3C(=O)c4c(O)cccc4[C@@](C)(O)[C@H]3[C@H](O)[C@@H]12 [OXYTETRACYCLINE]
Activity [5]: inhibitor [(at a rough estimate) 80 % of control]
Activity [8]: inhibitor [(at a rough estimate) 20 % of control]

Activity [9]: is not an inhibitor [-]
Activity [10]: is not an inhibitor [-]
Molecule: C[C@H]1c2cccc(O)c2C(=O)C2=C(O)[C@]3(O)C(=O)C(C(N)=O)=C(O)[C@@H](N(C)C)[C@@H]3[C@@H](O)[C@@H]21.O [DOXYCYCLINE]
Activity [11]: inhibitor [(at a rough estimate) 25 % of control]

Activity [13]: is not an inhibitor [-]
Activity [14]: is not an inhibitor [-]
Molecule: CN(C)c1ccc(O)c2c1C[C@H]1C[C@H]3[C@H](N(C)C)C(O)=C(C(N)=O)C(=O)[C@@]3(O)C(O)=C1C2=O [MINOCYCLINE]
Activity [12]: inhibitor [(at a rough estimate) 80 % of control]
Activity [15]: inhibitor [(at a rough estimate) 10 % of control]

B1: Organic anion transporter 3 (Homo sapiens) (protein)
chain: T3 sequence (Q8TCC7 whole entry)
Km [16]: 566 µM

B2: Solute carrier family 22 member 7 (Homo sapiens) (protein)
chain: T1 sequence (Q9Y694 whole entry)
Km [17]: 440 µM

B3: Solute carrier family 22 member 11 (Homo sapiens) (protein)
chain: T2 sequence (Q9NSA0 whole entry)
Km [18]: 123 µM
